What was measured:
[1] = system: gastric acid secretion (pentagastrin-stimulated acid output from the gastric pouch); assay: Gastric acid antisecretory activity in pentagastrin-stimulated conscious Heidenhain pouch dogs; type: in vivo; conditions: Canis lupus familiaris; for inhibition in vivo at up to 2 mg/kg: at the same (oral 2 mg/kg) or a lower dose; for inhibition in vivo at 2 mg/kg: oral dose of 2 mg/kg, Heidenhain pouch dogs, pentagastrin
Description: The gastric acid antisecretory activity of compounds of the present invention was determined in overnight fasted, conscious Heidenhain pouch dogs. Pentagastrin (Pentavolon-Ayerst) was used to stimulate acid output by continuous infusion into a superficial leg vein at doses earlier determined to stimulate near maximal acid output from the gastric pouch. Gastric juice was collected at 30 minute intervals following the start of a pentagastrin infusion and measured to the nearest 0.1 ml. Ten collections were taken for each dog during an experiment. Acid concentration was determined by tritrating 1.0 ml of gastric juice to pH 7.4 with 0.1N sodium hydroxide using an Autoburette and a glass electrode pH meter (Radiometer).
Drug or vehicle was given intravenously or orally 90 minutes following the start of the pentagastrin infusion, at a dose of 2 mg/kg or less. Gastric acid antisecretory effects were calculated by comparing the lowest acid output after drug administration with the mean acid output immediately before drug.

[2] = molecular target: T1, histamine-H2 receptor (Cavia porcellus, UniProt P47747); assay: Histamine-H2 antagonist activity in isolated guinea pig right atria (pA2); type: cell-based, Guinea pigs; conditions: Krebs-Henseleit buffer pH 7.4, 32°±2° C., histamine dose-response, * tested as the dihydrobromide salt, read-out: pA2 (apparent dissociation constant of the H2-receptor antagonist) (converted)
T1 construct: the heart removed and the right atria dissected free; from tissue; host or cells: guinea pig right atria (isolated, spontaneously beating)
Description: The histamine-H2 antagonist activity of compounds of the present invention was determined by the following procedure:
Guinea pigs are killed rapidly with a blow to the head, the heart removed and the right atria dissected free. Atria are suspended, isometrically, in a temperature-controlled (32°±2° C.) tissue bath (10 ml) containing oxygenated (95% O2; 5% CO2) Krebs-Henseleit buffer (pH 7.4) and are allowed to stabilize approximately one hour during which time the tissue bath is flushed several times. Individual atrial contractions are followed with a force-displacement transducer connected to a cardiotachometer and Grass polygraph recorder. After obtaining a dose-response curve to histamine, the bath containing each atrium is flushed several times with fresh buffer and the atria reequilibrated to basal rates. Following the return to basal rate, test compounds are added at selected final concentrations and the histamine dose-response curve is again determined in the presence of antagonist. Results are expressed as dose-ratios, the ratio of histamine concentrations required to produce one-half of maximal stimulation in the presence and absence of antagonist, and the apparent dissociation constant of the H2 -receptor antagonist pA2, is determined.

[3] = system: ethanol-induced gastric ulceration; assay: Inhibition of ethanol-induced ulceration in rats; type: in vivo, male rats; conditions: for cytoprotection (inhibition of ethanol-induced ulceration): same dosage, 30 mg/kg oral
Description: The antiulcer activity of the products of this invention was also determined by an ethanol-induced rat ulcer assay. In this test, overnight fasted male rats are given drug (at 30 or 3 mg/kg) or water orally fifteen minutes prior to an orally administered dose of absolute ethanol (1.0 ml). One hour after the ethanol challenge the animals (8/group) are killed and the stomachs examined for the presence of lesions. After sacrifice the abdomen is opened and a locking hemostat placed at the pylorus. Six ml of a 4% solution of formaldehyde was injected into the stomach with a gastric feeding tube and a second locking hemostat was used to seal the esophagus. The stomach was removed, opened along the greater curvature and examined for ulceration.
The scoring system used to quantitate the ethanol-induced lesions is given below.
For each group of animals an ulcer index is calculated as follows:
Ulceration Index=(the sum of the scores of the group)×(the sum of the number of ulcers in the group)×(the fraction of the group having any incidence of ulceration).
The percentage inhibition of ulcers is calculated as follows:
% Inhibition=100×[(ulcer index controls)-(ulcer index
drug-treated)].div.(ulcer index controls).

[4] = * tested as the dihydrobromide salt
[5] = oral dose of 3 mg/kg, * tested as the dihydrobromide salt
[6] = oral dose of 30 mg/kg, fifteen minutes prior to absolute ethanol

T1 sequence (P47747 whole entry): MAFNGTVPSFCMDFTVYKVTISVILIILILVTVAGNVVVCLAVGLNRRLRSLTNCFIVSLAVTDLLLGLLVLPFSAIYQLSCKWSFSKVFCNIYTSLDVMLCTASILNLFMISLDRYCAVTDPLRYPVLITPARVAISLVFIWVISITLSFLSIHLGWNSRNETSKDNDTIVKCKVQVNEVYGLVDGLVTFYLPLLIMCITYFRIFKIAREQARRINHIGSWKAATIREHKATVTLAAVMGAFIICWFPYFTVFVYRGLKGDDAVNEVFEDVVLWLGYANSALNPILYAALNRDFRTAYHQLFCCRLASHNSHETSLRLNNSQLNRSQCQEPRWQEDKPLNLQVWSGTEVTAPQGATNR

SMILES | inhibition in vivo at 0.1 mg/kg ([1]; iv, dose of 0.1 mg/kg (i.v.), * tested as the dihydrobromide salt) [%] | inhibition in vivo at up to 2 mg/kg [1, 4] [%] | Kb [2] [nM] | inhibition of ethanol-induced ulceration [3, 5] | cytoprotection (inhibition of ethanol-induced ulceration) [3] [%] | inhibition in vivo at 2 mg/kg [1] [%] | inhibition of ethanol-induced ulceration [3, 6]
CCCCCCNC(N)=Nc1nc(-c2c[nH]c(C)n2)cs1 [Example 5*] | 58 | ≥ 64 | ≤ 63.1 |  |  |  | 
Cc1nc(-c2csc(NC(=N)NCc3ccccc3)n2)c[nH]1 [Example 6a, N-[4-(2-methylimidazol-4-yl)thiazol-2-yl]-N'-benzylguanidine] |  |  | ≤ 63.1 |  |  |  | 
CCCCCCC(C)NC(=N)Nc1nc(-c2c[nH]c(C)n2)cs1 (stereo not shown) [Example 6b, N-[4-(2-methylimidazol-4-yl)thiazol-2-yl]-N'-2-octylguanidine] |  | ≥ 64 | ≤ 63.1 | at least 40% |  |  | 
CCCCCNC(N)=Nc1nc(-c2c[nH]c(C)n2)cs1 [Example 6c] |  | ≥ 64 | ≤ 126 |  | ≥ 90 |  | 
CCCCCCCNC(N)=Nc1nc(-c2c[nH]c(C)n2)cs1 [Example 6f] |  |  | ≤ 63.1 |  | ≥ 90 | ≥ 24 | at least 77%
CCCCCCCCNC(N)=Nc1nc(-c2c[nH]c(C)n2)cs1 [Example 6g] |  |  | ≤ 126 |  |  | ≥ 24 | 
CCCCCCC(C)NC(=N)Nc1nc(-c2c[nH]c(C)n2)cs1 (stereo not shown) [Example 6j, N-[4-(2-methylimidazol-4-yl)thiazol-2-yl]-N'-2-octylguanidine] |  |  |  |  |  |  | at least 77%
Cc1nc(-c2csc(NC(=N)NCc3ccccc3)n2)c[nH]1 [Example 6l, N-[4-(2-methylimidazol-4-yl)thiazol-2-yl]-N'-benzylguanidine] |  | ≥ 64 |  | at least 40% |  |  | at least 77%
Cc1nc(-c2csc(N=C(N)NCCc3ccccc3)n2)c[nH]1 [Example 6m] |  | ≥ 64 | ≤ 63.1 |  |  |  | at least 77%
Cc1nc(-c2csc(N=C(N)NCCCc3ccccc3)n2)c[nH]1 [Example 6n] |  |  | ≤ 63.1 |  |  | ≥ 24 | 
Cc1nc(-c2csc(N=C(N)NCCCCc3ccccc3)n2)c[nH]1 [Example 6o] |  |  |  |  | ≥ 90 | ≥ 24 | at least 77%

— patent US4560690A, “2-(N-substituted guanidino)-4-hetero-arylthiazole antiulcer agents” (Pfizer Inc., priority 1984, dated 1985)
